Source: patent publication US11084829B2, “Ubiquitin-specific-processing protease 7 (USP7) modulators and uses thereof” (RAPT THERAPEUTICS, INC., priority 2018, dated 2021)

Molecular target: USP7 (Homo sapiens, UniProt Q93009)
Test: USP7 inhibitory potency (IC50)
Assay type: biochemical
Experimental: Activity for compounds described herein is provided in Table 2, wherein potency levels are provided as follows: (Potency: USP7 IC50: A<0.01 μM; B=0.01-0.1 μM; C=>0.1 μM.

USP7, sequence (Q93009 whole entry): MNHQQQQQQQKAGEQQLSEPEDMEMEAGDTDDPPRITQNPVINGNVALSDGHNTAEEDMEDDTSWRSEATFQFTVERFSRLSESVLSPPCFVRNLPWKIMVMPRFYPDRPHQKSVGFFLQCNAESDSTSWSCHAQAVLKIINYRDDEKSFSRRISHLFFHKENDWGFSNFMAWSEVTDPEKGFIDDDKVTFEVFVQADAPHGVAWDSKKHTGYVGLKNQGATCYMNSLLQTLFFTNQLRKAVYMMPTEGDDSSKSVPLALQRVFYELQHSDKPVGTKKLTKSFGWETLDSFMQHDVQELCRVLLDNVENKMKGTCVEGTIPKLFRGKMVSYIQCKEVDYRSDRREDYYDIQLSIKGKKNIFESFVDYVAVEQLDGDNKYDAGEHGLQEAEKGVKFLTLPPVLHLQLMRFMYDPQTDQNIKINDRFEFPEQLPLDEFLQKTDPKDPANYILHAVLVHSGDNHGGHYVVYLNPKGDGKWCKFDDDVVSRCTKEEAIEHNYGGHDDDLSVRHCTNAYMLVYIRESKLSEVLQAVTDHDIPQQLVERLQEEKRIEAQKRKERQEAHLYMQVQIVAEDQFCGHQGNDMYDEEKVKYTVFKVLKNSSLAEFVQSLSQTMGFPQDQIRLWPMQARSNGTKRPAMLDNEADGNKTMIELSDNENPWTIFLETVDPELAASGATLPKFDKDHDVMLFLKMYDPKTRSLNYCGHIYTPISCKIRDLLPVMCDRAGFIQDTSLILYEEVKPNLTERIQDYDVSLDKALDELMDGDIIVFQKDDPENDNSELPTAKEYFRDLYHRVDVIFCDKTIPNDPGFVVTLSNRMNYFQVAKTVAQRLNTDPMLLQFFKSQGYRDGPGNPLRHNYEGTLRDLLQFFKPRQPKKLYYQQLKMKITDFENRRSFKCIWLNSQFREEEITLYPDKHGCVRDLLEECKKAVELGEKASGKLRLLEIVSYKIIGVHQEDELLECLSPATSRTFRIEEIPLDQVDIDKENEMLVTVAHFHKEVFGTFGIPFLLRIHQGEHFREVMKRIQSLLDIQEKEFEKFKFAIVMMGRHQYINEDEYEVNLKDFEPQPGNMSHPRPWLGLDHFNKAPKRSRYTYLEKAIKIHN

| Structure (SMILES) | IC50 |
| --- | --- |
| C[C@H]1CNCCN1Cc1ccc(F)cc1-c1ncnc2cc(CN3C(=O)C4CC4C3=O)sc12 (stereo partly drawn) [Example 63, 3-((4-(5-fluoro-2-(((S)-2-methylpiperazin-1-yl)methyl)phenyl)thieno[3,2-d]pyrimidin-6-yl)methyl)-3-azabicyclo[3.1.0]hexane-2,4-dione] | > 100 nM |
| COC(=O)C1CC1C(=O)NCc1cc2ncnc(-c3cc(Cl)cc(C)c3C[C@H]3OCCN[C@@H]3C)c2s1 (stereo partly drawn) [Example 161, methyl 2-(((4-(5-chloro-3-methyl-2-(((2R,3R)-3-methylmorpholin-2-yl)methyl)phenyl)thieno[3,2-d]pyrimidin-6-yl)methyl)carbamoyl)cyclopropane-1-carboxylate] | 10 to 100 nM |
| Cc1cc(Cl)cc(-c2ncnc3cc(CN4C(=O)CCC4=O)sc23)c1CC1CNCCO1 (stereo not drawn) [Example 153, 1-((4-(5-chloro-3-methyl-2-(morpholin-2-ylmethyl)phenyl)thieno[3,2-d]pyrimidin-6-yl)methyl)pyrrolidine-2,5-dione] | < 10 nM |
| COC[C@H]1CCC(=O)N1Cc1cc2ncnc(-c3cc(Cl)cc(C)c3CC3CNCC(C)(C)O3)c2s1 (stereo partly drawn) [Example 229, (5R)-1-((4-(5-chloro-2-((6,6-dimethylmorpholin-2-yl)methyl)-3-methylphenyl)thieno[3,2-d]pyrimidin-6-yl)methyl)-5-(methoxymethyl)pyrrolidin-2-one] | 10 to 100 nM |
| Cc1cc(Cl)cc(-c2ccnc3cc(CN4C(=O)C5CCCN5C4=O)sc23)c1CC1CNCCO1 (stereo not drawn) [Example 116, 2-((7-(5-chloro-3-methyl-2-(morpholin-2-ylmethyl)phenyl)thieno[3,2-b]pyridin-2-yl)methyl)tetrahydro-1H-pyrrolo[1,2-c]imidazole-1,3(2H)-dione] | < 10 nM |
| Cc1cc(Cl)cc(-c2ncnc3cc(CN4C(=O)CC(C)NC4=O)sc23)c1C[C@@H]1CNCCO1 (stereo partly drawn) [Example 248, 3-((4-(5-chloro-3-methyl-2-(((R)-morpholin-2-yl)methyl)phenyl)thieno[3,2-d]pyrimidin-6-yl)methyl)-6-methyldihydropyrimidine-2,4(1H,3H)-dione] | < 10 nM |
| Cc1cc(Cl)cc(-c2ccnc3cc(CN4C(=O)CCC4=O)sc23)c1CN1CCNCC1 [Example 5, 1-((7-(5-chloro-3-methyl-2-(piperazin-1-ylmethyl)phenyl)thieno[3,2-b]pyridin-2-yl)methyl)pyrrolidine-2,5-dione] | 10 to 100 nM |
| Cc1cc(Cl)cc(-c2ccnc3cc(CN4C(=O)C5CC5C4=O)sc23)c1C[C@@H]1CN[C@@H](C)CO1 (stereo partly drawn) [Example 98, 3-((7-(5-chloro-3-methyl-2-((5-methylmorpholin-2-yl)methyl)phenyl)thieno[3,2-b]pyridin-2-yl)methyl)-3-azabicyclo[3.1.0]hexane-2,4-dione] | < 10 nM |
| Cc1cc(Cl)cc(-c2ccnc3cc(CN4C(=O)C5CC5C4=O)sc23)c1CN1[C@@H](C)CN(C(C)C)C[C@@H]1C (stereo partly drawn) [Example 32, 3-((7-(5-chloro-2-(((2S,6S)-4-isopropyl-2,6-dimethylpiperazin-1-yl)methyl)-3-methylphenyl)thieno[3,2-b]pyridin-2-yl)methyl)-3-azabicyclo[3.1.0]hexane-2,4-dione] | < 10 nM |
| Cc1cc(Cl)cc(-c2ncnc3cc(CN4CC(CO)CC4=O)sc23)c1C[C@@H]1CNCC(C)(C)O1 (stereo partly drawn) [Example 231, 1-((4-(5-chloro-2-(((R)-6,6-dimethylmorpholin-2-yl)methyl)-3-methylphenyl)thieno[3,2-d]pyrimidin-6-yl)methyl)-4-(hydroxymethyl)pyrrolidin-2-one] | 10 to 100 nM |
| Cc1cc(Cl)cc(-c2ncnc3cc(CN4C(=O)CSC4=O)sc23)c1CN1C[C@@H](C)NC[C@@H]1C [Example 79, 3-((4-(5-chloro-2-(((2S,5R)-2,5-dimethylpiperazin-1-yl)methyl)-3-methylphenyl)thieno[3,2-d]pyrimidin-6-yl)methyl)thiazolidine-2,4-dione] | < 10 nM |
| Cc1cc(Cl)cc(-c2ccnc3cc(CN4C(=O)CCC4=O)sc23)c1CN1CCNC(C)C1 (stereo not drawn) [Example 18, 1-((7-(5-chloro-3-methyl-2-((3-methylpiperazin-1-yl)methyl)phenyl)thieno[3,2-b]pyridin-2-yl)methyl)pyrrolidine-2,5-dione] | < 10 nM |
| Cc1cc(Cl)cc(-c2ncnc3cc(CN4C(=O)C5CC5C4=O)sc23)c1C[C@@H]1CNCC(C)(C)O1 (stereo partly drawn) [Example 216, 3-((4-(5-chloro-2-(((R)-6,6-dimethylmorpholin-2-yl)methyl)-3-methylphenyl)thieno[3,2-d]pyrimidin-6-yl)methyl)-3-azabicyclo[3.1.0]hexane-2,4-dione] | < 10 nM |

Results, then the molecule that gave them:

| IC50 | Structure (SMILES) |
| --- | --- |
| < 10 nM | Cc1cc(Cl)cc(-c2ncnc3cc(CN4C(=O)CC[C@@H]4C(F)F)sc23)c1CC1CNCC(C)(C)O1 (stereo partly drawn) [Example 230, (5R)-1-((4-(5-chloro-2-((6,6-dimethylmorpholin-2-yl)methyl)-3-methylphenyl)thieno[3,2-d]pyrimidin-6-yl)methyl)-5-(difluoromethyl)pyrrolidin-2-one] |
| < 10 nM | Cc1cc(Cl)cc(-c2ccnc3cc(CN4C(=O)CCC4=O)sc23)c1CN1C[C@@H](C)N[C@H](C)C1 [Example 26, 1-((7-(5-chloro-2-(((3R,5R)-3,5-dimethylpiperazin-1-yl)methyl)-3-methylphenyl)thieno[3,2-b]pyridin-2-yl)methyl)pyrrolidine-2,5-dione] |
| < 10 nM | Cc1cc(Cl)cc(-c2ncnc3cc(CN4C(=O)C5C(C4=O)C5(C)C)sc23)c1C[C@@H]1CNCCO1 (stereo partly drawn) [Example 196, 3-((4-(5-chloro-3-methyl-2-(((R)-morpholin-2-yl)methyl)phenyl)thieno[3,2-d]pyrimidin-6-yl)methyl)-6,6-dimethyl-3-azabicyclo[3.1.0]hexane-2,4-dione] |
| < 10 nM | Cc1cc(Cl)cc(-c2ccnc3cc(CN4C(=O)CCC4=O)sc23)c1CN1CC2CC1CN2 (stereo not drawn) [Example 15, 1-((7-(2-((2,5-diazabicyclo[2.2.1]heptan-2-yl)methyl)-5-chloro-3-methylphenyl)thieno[3,2-b]pyridin-2-yl)methyl)pyrrolidine-2,5-dione] |
| < 10 nM | Cc1cc(Cl)cc(-c2ncnc3cc(CN4C(=O)CCN(CCF)C4=O)sc23)c1CN1[C@@H](C)CNC[C@@H]1C [Example 258, 3-((4-(5-chloro-2-(((2S,6S)-2,6-dimethylpiperazin-1-yl)methyl)-3-methylphenyl)thieno[3,2-d]pyrimidin-6-yl)methyl)-1-(2-fluoroethyl)dihydropyrimidine-2,4(1H,3H)-dione] |
| < 10 nM | Cc1cc(Cl)cc(-c2ncnc3cc(CN4C(=O)C5CC5C4=O)sc23)c1C[C@@H]1CNCCO1 (stereo partly drawn) [Example 182, 3-((4-(5-chloro-3-methyl-2-(((R)-morpholin-2-yl)methyl)phenyl)thieno[3,2-d]pyrimidin-6-yl)methyl)-3-azabicyclo[3.1.0]hexane-2,4-dione] |
| < 10 nM | CC1(C)C2C(=O)N(Cc3cc4ncnc(-c5cc(Cl)cc(Cl)c5CC5CNCCO5)c4s3)C(=O)C21 (stereo not drawn) [Example 226, 3-((4-(3,5-dichloro-2-(morpholin-2-ylmethyl)phenyl)thieno[3,2-d]pyrimidin-6-yl)methyl)-6,6-dimethyl-3-azabicyclo[3.1.0]hexane-2,4-dione] |
| < 10 nM | CCN1CC(=O)N(Cc2cc3ncnc(-c4cc(Cl)cc(C)c4CC4CNCCO4)c3s2)C1=O (stereo not drawn) [Example 188, 3-((4-(5-chloro-3-methyl-2-(morpholin-2-ylmethyl)phenyl)thieno[3,2-d]pyrimidin-6-yl)methyl)-1-ethylimidazolidine-2,4-dione] |
